Measurements reported in article PMC11571207, “Stereorandomized Oncocins with Preserved Ribosome Binding and Antibacterial Activity” (Journal of Medicinal Chemistry, 2024).
In brackets after ≈: the same amount, converted by molar mass. Read-outs that look alike come from different tables or passages of the source.

Legend:
A. baumannii ATCC19606 = experiment: microbe, parasite or virus in culture; settings: Acinetobacter baumannii
Summary of the method: (§1)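 Read-out was visible growth after MTT addition, the MIC being the lowest inhibitory peptide concentration. Bacteria grown to log phase in LB were exposed in MH medium to peptide from 64 μg/mL in twofold dilutions for 15-18h at 37°C.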

E. coli W3110 = experiment: microbe, parasite or virus in culture; settings: Escherichia coli
Summary of the method: as §1

K. pneumoniae NCTC 418 = experiment: microbe, parasite or virus in culture; settings: Klebsiella pneumoniae
Summary of the method: as §1

P. aeruginosa PAO1 = experiment: microbe, parasite or virus in culture; settings: for MIC: Pseudomonas aeruginosa
Summary of the method: as §1

S. aureus COL (MRSA) = experiment: microbe, parasite or virus in culture; settings: for MIC: Staphylococcus aureus, MRSA
Summary of the method: as §1

E. cloacae = experiment: microbe, parasite or virus in culture; settings: Enterobacter cloacae
Procedure: (§2) Minimum inhibitory concentration assay
(§3) Antimicrobial activity was assayed against P. aeruginosa PAO1, K. pneumoniae NCTC418, E. coli W3110, A. baumannii ATCC 19606, methicillin-resistant S. aureus COL (MRSA), and for selected peptides on P. aeruginosa PA14 and the polymyxin-B-resistant derivative PA14 2P4, as well as the clinical isolates ZEM-1A and ZEM9A, K. pneumoniae OXA-48, S. aureus Newman, Enterobacter cloacae and Burkholderia cenocepacia. The minimal inhibitory concentration (MIC) was determined by using broth microdilution method. A colo ny of bacteria was picked and grown in Luria-Bertani (LB) medium overnight at 37°C. For E. coli BW25113 sbmA::kan the medium was supplemented with 25 mg/L of kanamycin. The next day, the culture was then regrown in LB medium to log phase (OD600 = 0.6 to 0.8), which lasted approximately 4 h, and diluted to an OD600 of 0.022 in the desired medium. Stock solutions of 1 mg/mL of the samples were prepared in sterilized milliQ water and diluted to the beginning concentration of 64 μg/mL in 300 μL Mueller Hinton (MH)-medium. The diluted samples were added to first well of 96-well microtiter plate (TPP, untreated, Faust Laborbedarf, AG, Schaffhausen) and diluted serially by ½. Finally, 4 μL of the bacterial suspension was inoculated into the sample solutions (150 μL/well) with a final inoculation of about 5∙10^5 CFU/mL. The plates were then incubated at 37°C for 15-18h. For each assay, sterility (broth only) and growth control (broth with bacterial inoculum, without antibiotics) were checked with two columns in the plate. The next day, 15 μL of 3-(4,5-dimethylthiazol-2-yl)-2,5-diphenyltetrazolium bromide (MTT) was added to each well of the plate, such a way that MIC was defined as the lowest concentration of the peptide that inhibited visible growth of the tested

K. pneumoniae OXA-48 = experiment: microbe, parasite or virus in culture; settings: Klebsiella pneumoniae
Procedure: as §2, §3

[1] = system: P. aeruginosa PA14 2P4 (pmrB); experiment: microbe, parasite or virus in culture; settings: Pseudomonas aeruginosa
Procedure: as §2, §3

P. aeruginosa PA14 = experiment: microbe, parasite or virus in culture; settings: for MIC: Pseudomonas aeruginosa
Procedure: as §2, §3

P. aeruginosa ZEM-1A = experiment: microbe, parasite or virus in culture; settings: Pseudomonas aeruginosa, ZEM1A
Procedure: as §2, §3

P. aeruginosa ZEM9A = experiment: microbe, parasite or virus in culture; settings: Pseudomonas aeruginosa, ZEM9A
Procedure: as §2, §3

[2] = system: P. aeruginosa PA14 4.18 (pmrB); settings: supplement CSV; full MH pH 7.4

Structure (SMILES): CC[C@H]1OC(=O)[C@H](C)[C@@H](O[C@H]2C[C@@](C)(OC)[C@@H](O)[C@H](C)O2)[C@H](C)[C@@H](O[C@@H]2O[C@H](C)C[C@H](N(C)C)[C@H]2O)[C@](C)(O)C[C@@H](C)CN(C)[C@H](C)[C@@H](O)[C@]1(C)O [AZM, azithromycin, reference compound]
- MIC (A. baumannii ATCC19606; ATCC19606, pH 7.4, read-out: MIC A. baumannii ATCC19606, supplement CSV, 12.5% MH pH 7.4): 32 µg/mL (≈ 42.7 µM)
- MIC (A. baumannii ATCC19606; ATCC19606, pH 7.4, read-out: MIC A. baumannii ATCC19606, supplement CSV, full MH pH 7.4): 4 µg/mL (≈ 5.34 µM)
- MIC (A. baumannii ATCC19606; ATCC19606, read-out: MIC A. baumannii, 12.5% MHB, A. baumannii ATCC19606, 12.5% Müller–Hinton medium, 16–20 h at 37 °C): 32 µg/mL (≈ 42.7 µM)
- MIC (A. baumannii ATCC19606; ATCC19606, read-out: MIC A. baumannii, Full MHB, A. baumannii ATCC19606, full Müller–Hinton medium, 16–20 h at 37 °C): 4 µg/mL (≈ 5.34 µM)
- MIC (E. coli W3110; W3110, pH 7.4, read-out: MIC E. coli W3110, supplement CSV, 12.5% MH pH 7.4): 2 µg/mL (≈ 2.67 µM)
- MIC (E. coli W3110; W3110, pH 7.4, read-out: MIC E. coli W3110, supplement CSV, full MH pH 7.4): < 0.5 µg/mL
- MIC (E. coli W3110; W3110, read-out: MIC E. coli, 12.5% MHB, E. coli W3110, 12.5% Müller–Hinton medium, 16–20 h at 37 °C, broth microdilution): 2 µg/mL (≈ 2.67 µM)
- MIC (E. coli W3110; W3110, read-out: MIC E. coli, Full MHB, E. coli W3110, full Müller–Hinton medium, 16–20 h at 37 °C, broth microdilution): < 0.5 µg/mL
- MIC (K. pneumoniae NCTC 418; NCTC418, pH 7.4, read-out: MIC K. pneumoniae NCTC418, supplement CSV, 12.5% MH pH 7.4): 1 µg/mL (≈ 1.34 µM)
- MIC (K. pneumoniae NCTC 418; NCTC418, pH 7.4, read-out: MIC K. pneumoniae NCTC418, supplement CSV, full MH pH 7.4): < 0.5 µg/mL
- MIC (K. pneumoniae NCTC 418; NCTC418, read-out: MIC K. pneumoniae, 12.5% MHB, K. pneumoniae NCTC 418, 12.5% Müller–Hinton medium, 16–20 h at 37 °C): 1 µg/mL (≈ 1.34 µM)
- MIC (K. pneumoniae NCTC 418; NCTC418, read-out: MIC K. pneumoniae, Full MHB, K. pneumoniae NCTC 418, full Müller–Hinton medium, 16–20 h at 37 °C): < 0.5 µg/mL
- MIC (P. aeruginosa PAO1; PAO1, pH 7.4, read-out: MIC P. aeruginosa PAO1): 32 µg/mL (≈ 42.7 µM)
- MIC (P. aeruginosa PAO1; PAO1, read-out: MIC P. aeruginosa, 12.5% MHB): 32 µg/mL (≈ 42.7 µM)
- MIC (P. aeruginosa PAO1; PAO1, read-out: MIC P. aeruginosa, Full MHB): 32 µg/mL (≈ 42.7 µM)
- MIC P. aeruginosa PAO1 (P. aeruginosa PAO1; supplement CSV, full MH pH 7.4): 32 µg/mL (≈ 42.7 µM)
- MIC (S. aureus COL (MRSA); pH 7.4, read-out: MIC S. aureus COL (MRSA)): < 0.5 µg/mL
- MIC (S. aureus COL (MRSA); read-out: MIC S. aureus, 12.5% MHB): < 0.5 µg/mL
- MIC (S. aureus COL (MRSA); read-out: MIC S. aureus, Full MHB): < 0.5 µg/mL
- MIC S. aureus COL (MRSA) (S. aureus COL (MRSA); supplement CSV, 12.5% MH pH 7.4): <0.5 µg/mL
- MIC (E. cloacae; pH 7.4, read-out: MIC E. cloacae, 12.5% MHB, 12.5% MHB pH 7.4, 16–20 h at 37 °C): 8 µg/mL (≈ 10.7 µM)
- MIC (E. cloacae; pH 7.4, read-out: MIC E. cloacae, full MHB, full MHB pH 7.4, 16–20 h at 37 °C): 16 µg/mL (≈ 21.4 µM)
- MIC (E. cloacae; pH 7.4, read-out: MIC E. cloacae, supplement CSV, 12.5% MH pH 7.4): 8 µg/mL (≈ 10.7 µM)
- MIC (E. cloacae; pH 7.4, read-out: MIC E. cloacae, supplement CSV, full MH pH 7.4): 16 µg/mL (≈ 21.4 µM)
- MIC (K. pneumoniae OXA-48; OXA48, pH 7.4, read-out: MIC K. pneumoniae OXA-48, 12.5% MHB, carbapenem-resistant, 12.5% MHB pH 7.4, 16–20 h at 37 °C): 8 µg/mL (≈ 10.7 µM)
- MIC (K. pneumoniae OXA-48; OXA48, pH 7.4, read-out: MIC K. pneumoniae OXA-48, full MHB, carbapenem-resistant, full MHB pH 7.4, 16–20 h at 37 °C): 8 to 16 µg/mL (≈ 10.7 to 21.4 µM)
- MIC (K. pneumoniae OXA-48; OXA48, pH 7.4, read-out: MIC K. pneumoniae OXA-48, supplement CSV, 12.5% MH pH 7.4): 8 µg/mL (≈ 10.7 µM)
- MIC (K. pneumoniae OXA-48; OXA48, pH 7.4, read-out: MIC K. pneumoniae OXA-48, supplement CSV, full MH pH 7.4): 8 to 16 µg/mL (≈ 10.7 to 21.4 µM)
- MIC ([1]; PA14, pH 7.4, read-out: MIC P. aeruginosa PA14 2P4 (pmrB), 12.5% MHB, polymyxin B resistant strain, 12.5% MHB pH 7.4, 16–20 h at 37 °C): 16 µg/mL (≈ 21.4 µM)
- MIC ([1]; PA14, pH 7.4, read-out: MIC P. aeruginosa PA14 2P4 (pmrB), full MHB, polymyxin B resistant strain, full MHB pH 7.4, 16–20 h at 37 °C): 32 to 64 µg/mL (≈ 42.7 to 85.4 µM)
- MIC ([1]; PA14, pH 7.4, read-out: MIC P. aeruginosa PA14 2P4, supplement CSV, 12.5% MH pH 7.4): 16 µg/mL (≈ 21.4 µM)
- MIC ([1]; PA14, pH 7.4, read-out: MIC P. aeruginosa PA14 2P4, supplement CSV, full MH pH 7.4): 32 to 64 µg/mL (≈ 42.7 to 85.4 µM)
- MIC (P. aeruginosa PA14; PA14, pH 7.4, read-out: MIC P. aeruginosa PA14): 32 µg/mL (≈ 42.7 µM)
- MIC (P. aeruginosa PA14; PA14, pH 7.4, read-out: MIC P. aeruginosa PA14, 12.5% MHB): 32 µg/mL (≈ 42.7 µM)
- MIC (P. aeruginosa PA14; PA14, pH 7.4, read-out: MIC P. aeruginosa PA14, full MHB): 32 µg/mL (≈ 42.7 µM)
- MIC P. aeruginosa PA14 (P. aeruginosa PA14; supplement CSV, full MH pH 7.4): 32 µg/mL (≈ 42.7 µM)
- MIC (P. aeruginosa ZEM-1A; pH 7.4, read-out: MIC P. aeruginosa ZEM-1A, 12.5% MHB, clinical isolate, 12.5% MHB pH 7.4, 16–20 h at 37 °C, cells marked c: single measurement (in duplicates)): < 0.5 µg/mL
- MIC (P. aeruginosa ZEM-1A; pH 7.4, read-out: MIC P. aeruginosa ZEM-1A, full MHB, clinical isolate, full MHB pH 7.4, 16–20 h at 37 °C, cells marked c: single measurement (in duplicates)): 64 µg/mL (≈ 85.4 µM)
- MIC (P. aeruginosa ZEM-1A; pH 7.4, read-out: MIC P. aeruginosa ZEM-1A, supplement CSV, 12.5% MH pH 7.4): < 0.5 µg/mL
- MIC (P. aeruginosa ZEM-1A; pH 7.4, read-out: MIC P. aeruginosa ZEM-1A, supplement CSV, full MH pH 7.4): 64 µg/mL (≈ 85.4 µM)
- MIC (P. aeruginosa ZEM9A; pH 7.4, read-out: MIC P. aeruginosa ZEM9A, 12.5% MHB, clinical isolate, 12.5% MHB pH 7.4, 16–20 h at 37 °C): 32 to 64 µg/mL (≈ 42.7 to 85.4 µM)
- MIC (P. aeruginosa ZEM9A; pH 7.4, read-out: MIC P. aeruginosa ZEM9A, full MHB, clinical isolate, full MHB pH 7.4, 16–20 h at 37 °C): > 64 µg/mL
- MIC (P. aeruginosa ZEM9A; pH 7.4, read-out: MIC P. aeruginosa ZEM9A, supplement CSV, 12.5% MH pH 7.4): 32 to 64 µg/mL (≈ 42.7 to 85.4 µM)
- MIC (P. aeruginosa ZEM9A; pH 7.4, read-out: MIC P. aeruginosa ZEM9A, supplement CSV, full MH pH 7.4): > 64 µg/mL
- MIC P. aeruginosa PA14 4.18 [2]: 32 µg/mL (≈ 42.7 µM)
